What was measured:
Assay type in all cases: in vivo, male Wistar rats
[1] = tested on: moderate traumatic brain injury (TBI) induced by controlled cortical impact (CCI); test: Lesion volume and hippocampal structure (H&E) 35 days post-TBI; conditions: 4.5 mg/kg IN twice daily, 35 days after TBI
Excerpt: (§1) Young adult (2-3 months) male Wistar rats were subjected to a moderate traumatic brain injury (TBI) induced by controlled cortical impact (CCI). Animal models of TBI including the CCI model and functional tests have been described in detail in peer reviewed publications (Xiong et al., 2013, Nat Rev Neurosci.; Zhang et al., 2016, J Neurosurg.; Zhang et al., 2016, Neurochem Int.; Zhang et al., 2021, J Neurotrauma). Injury consisted of a single impact at 4.0 m/sec, 2.5 mm deformation to the left parietal cortex. In addition, a group of animals was left healthy/not injured to serve as a healthy control.
(§2) The substance used in this study was ALPHA-1062 at 4.5 mg/kg. As control treatment (vehicle) purified water was administered intranasally (IN). The ALPHA-1062 and the control treatment were initiated 2 hours after injury and continued twice daily (with a 6-hour interval) for 35 consecutive days.
Histological assessment was performed including quantitative image analysis protocols; followed by statistical analysis of the data. Histology: All rats were sacrificed after the last Morris water maze (MWM) test 35 days after TBI for the following histological analyses: lesion volume (H&E), neuronal cell loss in injured cortex and hippocampus (NeuN), doublecortin (DCX, neuroblasts), NeuN/BrdU (newborn neurons), pathological p-Tau (AT8) and total Tau IHC. […]

[2] = tested on: NeuN positive cells in DG, CA1, CA3 and cortex; test: NeuN IHC, neuronal cell loss 35 days post-TBI; conditions: 4.5 mg/kg IN twice daily; 35 days following TBI
Excerpt: as §1
The substance used in this study was ALPHA-1062 at 4.5 mg/kg. As control treatment (vehicle) purified water was administered intranasally (IN). […]
Histological assessment was performed including quantitative image analysis protocols; followed by statistical analysis of the data. […]
For cell counting and quantitation NeuN+ cells were examined in the ipsilateral cortex, DG, CA1, and CA3 regions of the ipsilateral hippocampus. […] The number of BrdU+ cells (red-fluorophore) and NeuN (green-fluorophore)/BrdU-colabeled cells (yellow after merge) were counted. […] The immune-positive cells were determined and divided by the measured areas and presented as numbers per square mm. […]

[3] = tested on: moderate traumatic brain injury (TBI) induced by controlled cortical impact (CCI); test: Modified neurological severity score (mNSS) after TBI
Excerpt: as §1
The animals were divided into 3 groups: • 1) TBI+Vehicle (purified water, n=10) • 2) TBI+ALPHA-1062 (4.5 mg/kg) (n=10) • 3) Healthy/not injured and not treated (Sham surgery) (n=10)
as §2
In addition, neurological functional tests were performed by conducting footfault tests and observations to determine the modified neurological severity score (mNSS) at 1, 7, 14, 21, 28, 35 days after TBI (see Table 1). The mNSS is a composite score assessing motor, sensory, balance, and reflex functions. […]

SMILES: COc1ccc2c3c1O[C@H]1C[C@@H](OC(=O)c4ccccc4)C=C[C@@]31CCN(C)C2 [ALPHA-1062, (4aS,6R,8aS)-5,6,9,10,11,12-hexahydro-3-methoxy-11-methyl-4aH-[1]benzofuro[3a,3,2-ef][2]benzazepin-6-ol benzoate]
- hippocampal structure on the injured side of the brain [1]: preservation of hippocampal structure
- lesion volume ([1]; vs vehicle): significant (p<0.05) reduction of lesion volume
- neuron numbers (NeuN) in DG, CA1, CA3 and cortex, compared to vehicle [2]: reduced loss of neurons
- neuronal cell numbers (NeuN) compared to sham surgery animals [2]: did not differ significantly
- mNSS performance ([3]; 4.5 mg/kg IN twice daily, from day 14 (D14) onwards, vs vehicle): statistically significantly better
- Modified Neurological Severity Score (mNSS), performance over VEHICLE ([3]; rats after TBI, compared to vehicle treatment): superior
